Assay results published in the NIST ThermoML archive (doi:10.1016/j.jct.2016.08.038).
± gives the expanded uncertainty stated by the source.

Assays:
[1] = refractive index (Na D-line) (dimensionless); conditions: 101.33 kPa, Standard Abbe refractometry, Liquid
[2] = molar heat capacity at constant pressure; conditions: 101.33 kPa, Small sample (50 mg) DSC, Liquid
[3] = Molar enthalpy of transition or fusion; conditions: DSC
[4] = for electrical conductivity: Frequency=0.001 MHz, Alternating current cell with electrodes; for electrical conductivity / speed of sound / kinematic viscosity / mass density / surface tension liquid-gas: Liquid; for speed of sound: Frequency=3 MHz, Sing-around technique in a fixed-path interferometer; for kinematic viscosity: Capillary tube (Ostwald / Ubbelohde) method; for mass density: Vibrating tube method; for surface tension liquid-gas: Drop volume

CC[n+]1ccccc1.O=S(=O)([O-])C(F)(F)F [1-ethylpyridinium triflate]
Conditions	Molar enthalpy of transition or fusion [kcal/mol]	Normal melting temperature [°C]	Triple point temperature [K]	molar heat capacity at constant pressure [J/K/mol]	refractive index	surface tension liquid-gas [mN/m]
[1], 293.15 K	–	–	–	–	1.46039 ± 0.00037	–
[1], 295.65 K	–	–	–	–	1.45969 ± 0.00037	–
[1], 298.15 K	–	–	–	–	1.45898 ± 0.00037	–
[1], 300.65 K	–	–	–	–	1.4583 ± 0.00037	–
[1], 303.15 K	–	–	–	–	1.45759 ± 0.00037	–
[1], 305.65 K	–	–	–	–	1.45689 ± 0.00037	–
[1], 308.15 K	–	–	–	–	1.45619 ± 0.00037	–
[1], 310.65 K	–	–	–	–	1.4555 ± 0.00037	–
[1], 313.15 K	–	–	–	–	1.45484 ± 0.00037	–
[1], 315.65 K	–	–	–	–	1.45415 ± 0.00037	–
[1], 318.15 K	–	–	–	–	1.45345 ± 0.00037	–
[1], 320.65 K	–	–	–	–	1.45276 ± 0.00037	–
[1], 323.15 K	–	–	–	–	1.45206 ± 0.00037	–
[1], 325.65 K	–	–	–	–	1.45134 ± 0.00037	–
[1], 328.15 K	–	–	–	–	1.45064 ± 0.00037	–
[1], 330.65 K	–	–	–	–	1.44995 ± 0.00037	–
[1], 333.15 K	–	–	–	–	1.44927 ± 0.00037	–
[1], 335.65 K	–	–	–	–	1.44859 ± 0.00037	–
[1], 338.15 K	–	–	–	–	1.44789 ± 0.00037	–
[2], 293.15 K	–	–	–	348.4 ± 12	–	–
[2], 295.65 K	–	–	–	350.2 ± 12	–	–
[2], 298.15 K	–	–	–	351.8 ± 12	–	–
[2], 300.65 K	–	–	–	353.6 ± 12	–	–
[2], 303.15 K	–	–	–	355.3 ± 12	–	–
[2], 305.65 K	–	–	–	357.1 ± 12	–	–
[2], 308.15 K	–	–	–	358.7 ± 12	–	–
[2], 310.65 K	–	–	–	360.5 ± 12	–	–
[2], 313.15 K	–	–	–	362.1 ± 12	–	–
[2], 315.65 K	–	–	–	363.8 ± 12	–	–
[2], 318.15 K	–	–	–	365.4 ± 12	–	–
[2], 320.65 K	–	–	–	367 ± 12	–	–
[2], 323.15 K	–	–	–	368.7 ± 12	–	–
[2], 325.65 K	–	–	–	370.3 ± 12	–	–
[2], 328.15 K	–	–	–	371.8 ± 12	–	–
[2], 330.65 K	–	–	–	373.5 ± 12	–	–
[2], 333.15 K	–	–	–	375.2 ± 12	–	–
[2], 335.65 K	–	–	–	376.9 ± 12	–	–
[2], 338.15 K	–	–	–	378.6 ± 13	–	–
[3], Crystal 1	2.75 ± 0.0717	–	–	–	–	–
[3], Crystal 2	0.167 ± 0.0239	–	–	–	–	–
[4], 293.15 K	–	–	–	–	–	42.48 ± 0.51
[4], 295.65 K	–	–	–	–	–	42.36 ± 0.51
[4], 298.15 K	–	–	–	–	–	42.26 ± 0.5
[4], 300.65 K	–	–	–	–	–	42.15 ± 0.5
[4], 303.15 K	–	–	–	–	–	42.08 ± 0.5
[4], 305.65 K	–	–	–	–	–	42.02 ± 0.5
[4], 308.15 K	–	–	–	–	–	41.93 ± 0.5
[4], 310.65 K	–	–	–	–	–	41.83 ± 0.5
[4], 313.15 K	–	–	–	–	–	41.71 ± 0.5
[4], 315.65 K	–	–	–	–	–	41.65 ± 0.5
[4], 318.15 K	–	–	–	–	–	41.55 ± 0.5
[4], 320.65 K	–	–	–	–	–	41.43 ± 0.49
[4], 323.15 K	–	–	–	–	–	41.31 ± 0.49
[4], 325.65 K	–	–	–	–	–	41.22 ± 0.49
[4], 328.15 K	–	–	–	–	–	41.16 ± 0.49
[4], 330.65 K	–	–	–	–	–	41.07 ± 0.49
[4], 333.15 K	–	–	–	–	–	40.95 ± 0.49
[4], 335.65 K	–	–	–	–	–	40.88 ± 0.49
[4], 338.15 K	–	–	–	–	–	40.76 ± 0.49
[4], Crystal 1, DTA	–	16 ± 1	–	–	–	–
[4], Crystal 2, DSC	–	–	260.4 ± 1.2	–	–	–

[4]
Conditions	electrical conductivity [S/m]	kinematic viscosity [m2/s]	mass density [kg/m3]	speed of sound [m/s]
293.15 K, 100 kPa	0.407 ± 0.008	–	–	1500.4 ± 2.7
293.15 K, 101.33 kPa	–	6.89e-05 ± 1.5e-06	1409.09 ± 1.1	–
295.65 K, 100 kPa	0.456 ± 0.009	–	–	1495 ± 2.8
295.65 K, 101.33 kPa	–	6.14e-05 ± 1.3e-06	1407.09 ± 1.1	–
298.15 K, 100 kPa	0.502 ± 0.01	–	–	1489.1 ± 2.8
298.15 K, 101.33 kPa	–	5.47e-05 ± 1.1e-06	1405.03 ± 1.1	–
300.65 K, 100 kPa	0.556 ± 0.011	–	–	1483.4 ± 2.8
300.65 K, 101.33 kPa	–	4.95e-05 ± 1e-06	1402.96 ± 1.1	–
303.15 K, 100 kPa	0.613 ± 0.012	–	1400.91 ± 1.1	1477.7 ± 2.8
303.15 K, 101.33 kPa	–	4.45e-05 ± 9.3e-07	1400.9 ± 1.1	–
303.15 K, 5000 kPa	–	–	1403.53 ± 1.2	–
303.15 K, 10000 kPa	–	–	1406.14 ± 1.2	–
303.15 K, 15000 kPa	–	–	1408.69 ± 1.2	–
303.15 K, 20000 kPa	–	–	1411.17 ± 1.3	–
303.15 K, 25000 kPa	–	–	1413.58 ± 1.4	–
303.15 K, 30000 kPa	–	–	1415.93 ± 1.4	–
303.15 K, 35000 kPa	–	–	1418.22 ± 1.5	–
303.15 K, 40000 kPa	–	–	1420.44 ± 1.5	–
305.65 K, 100 kPa	0.676 ± 0.014	–	–	1471.9 ± 2.8
305.65 K, 101.33 kPa	–	4.02e-05 ± 8.4e-07	1398.85 ± 1.1	–
308.15 K, 100 kPa	0.744 ± 0.015	–	–	1466.3 ± 2.7
308.15 K, 101.33 kPa	–	3.63e-05 ± 7.6e-07	1396.8 ± 1.1	–
310.65 K, 100 kPa	0.808 ± 0.016	–	–	1461.1 ± 2.8
310.65 K, 101.33 kPa	–	3.3e-05 ± 6.9e-07	1394.77 ± 1.1	–
313.15 K, 100 kPa	0.872 ± 0.017	–	–	1455 ± 2.7
313.15 K, 101.33 kPa	–	3.01e-05 ± 6.3e-07	1392.77 ± 1.1	–
315.65 K, 100 kPa	0.953 ± 0.019	–	–	1450 ± 2.7
315.65 K, 101.33 kPa	–	2.75e-05 ± 5.8e-07	1390.68 ± 1.1	–
318.15 K, 100 kPa	1.02 ± 0.021	–	–	1444 ± 2.8
318.15 K, 101.33 kPa	–	2.52e-05 ± 5.3e-07	1388.63 ± 1.1	–
320.65 K, 100 kPa	1.13 ± 0.023	–	–	1438.2 ± 2.6
320.65 K, 101.33 kPa	–	2.31e-05 ± 4.9e-07	1386.59 ± 1.1	–
323.15 K, 100 kPa	1.21 ± 0.024	–	–	1433.2 ± 2.6
323.15 K, 101.33 kPa	–	2.13e-05 ± 4.5e-07	1384.6 ± 1.1	–
325.65 K, 100 kPa	1.3 ± 0.026	–	–	1427.4 ± 2.8
325.65 K, 101.33 kPa	–	1.96e-05 ± 4.1e-07	1382.5 ± 1.1	–
328.15 K, 100 kPa	1.39 ± 0.028	–	–	1421.9 ± 2.8
328.15 K, 101.33 kPa	–	1.82e-05 ± 3.8e-07	1380.47 ± 1.1	–
330.65 K, 100 kPa	1.47 ± 0.029	–	–	1416.1 ± 2.7
330.65 K, 101.33 kPa	–	1.69e-05 ± 3.5e-07	1378.45 ± 1.1	–
333.15 K, 100 kPa	1.59 ± 0.032	–	–	1410.6 ± 2.7
333.15 K, 101.33 kPa	–	1.57e-05 ± 3.3e-07	1376.42 ± 1.1	–
335.65 K, 100 kPa	1.68 ± 0.034	–	–	1405.1 ± 2.7
335.65 K, 101.33 kPa	–	1.46e-05 ± 3.1e-07	1374.41 ± 1.1	–
338.15 K, 100 kPa	1.78 ± 0.036	–	–	1399.7 ± 2.7
338.15 K, 101.33 kPa	–	1.36e-05 ± 2.9e-07	1372.35 ± 1.1	–
